Experimental data reported in patent EP4692072A1, “PHOTOCHROMIC COMPOUND, PROPARGYL ALCOHOL COMPOUND, CURABLE COMPOSITION, OPTICAL ARTICLE, LENS, AND SPECTACLES” (TOKUYAMA CORPORATION, priority 2023, dated 2024).

Legend:
Assay type in all cases: physicochemical
[1] = Accelerated deterioration (xenon weather meter X25, 120 hours) of photochromic cured product prepared by kneading method; conditions: 1 mm cured product, 0.106 mmol per 100 g monomer, A120/A0×100 after 120 hours xenon weather meter
Protocol: (§1) • [1] Maximum Absorption Wavelength (λmax): The maximum absorption wavelength after color development, measured using a spectrophotometer (instantaneous multichannel photodetector MCPD3000) manufactured by Otsuka Electronics Co., Ltd. was used as an indicator for the color tone during the color development. • [2] 23°C Color Optical Density (A23): A difference between an absorbancy measured after light irradiation at 23°C for 300 seconds {ε(300)} and an absorbancy without light irradiation ε(0) at the maximum absorption wavelength was used as an indicator for the color optical density. […] 23°C color fading half-life [τ1/2 (sec.)]: A time required for the absorbancy of the sample at the maximum absorption wavelength to decrease to 1/2 of {ε(300)-ε(0)} when the light irradiation was terminated after the light irradiation at 23°C for 300 seconds, was used as an indicator for the color fading speed. The shorter this time, the higher the color fading speed. • [4] Residual rate (A120/A0×100): The obtained photochromic plastic lens was subjected to accelerated deterioration using a xenon weather meter X25 manufactured by Suga Test Instruments Co., Ltd. for 120 hours. Subsequently, the color optical density was evaluated before and after the test, then a color optical density before the test (A0) and a color optical density after the test (A120) were measured, and a ratio (A120/A0) was defined as a residual rate. The residual rate was used as an indicator for a color developing durability. The higher the residual rate, the higher the color developing durability. The results of Examples 26, 50, and Comparative Examples 1 to 8 are summarized in Table 1, and the results of Examples 27 to 49 are summarized in Tables 2 and 3.
(§2) First, the photochromic compound obtained in Example 1, additives, and a polymerizable compound were mixed to obtain a curable composition.
(§3) As the polymerizable compound, a combination of the following polymerizable monomers was used. • 1,3-bis(isocyanatomethyl)cyclohexane: 36.7 parts by mass Pentaerythritol tetrakis(3-mercaptopropionate): 39.4 parts by mass • Polyoxyethylene polyoxypropylene lauryl ether (Wonder Surf 140 manufactured by Aoki Oil Industrial Co., Ltd.): 17.4 parts by mass • 1-decanethiol: 2.8 parts by mass • RX-1 adjusted according to the method described in Patent Document 13: 3.8 parts by mass
(§4) Note that the photochromic compound was added to the curable composition so that the amount of the photochromic compound was 0.106 mmol based on 100 g of the total amount of the polymerizable monomer. The following additives were used: Dimethyltin dichloride • : 0.05 part by mass • Irganox 245: 0.1 part by mass • 2-ethylhexyl 4-methoxycinnamate: 0.6 part by mass
(§5) The prepared curable composition was thoroughly defoamed, then injected into a glass mold having a 1 mm gap, and polymerized by cast polymerization. The polymerization was carried out in an air furnace while gradually raising the temperature from 27°C to 120°C over 18 hours. After the polymerization, the cured product was removed from the glass mold to obtain a photochromic cured product having a thickness of 1 mm. The obtained photochromic cured product was evaluated in the same manner as in Example 26.
(§6) (Examples 85 to 99, and Comparative Example 14 to 18) Photochromic cured products were prepared using photochromic compounds presented in Tables 6 and 7 in the same manner as in Example 84. The results of Examples 84 and 85 and Comparative Examples 14 to 18 are summarized in Table 6, and the results of Examples 86 to 99 are summarized in Table 7.

[2] = Photochromic properties of photochromic cured product prepared by kneading method; conditions: 0.106 mmol per 100 g monomer
Protocol: as §1, §2, §3, §4, §5, §6

[3] = Accelerated deterioration (xenon weather meter X25, 120 hours) of photochromic laminate prepared by coating method; conditions: 0.25 mmol per 100 g monomers, A120/A0×100 after 120 hours xenon weather meter
Excerpt: (§7) First, the photochromic compound obtained in Example 1, a photoinitiator, and a polymerizable compound were mixed to obtain a curable composition.
(§8) Polyethylene glycol dimethacrylate (average molecular weight: 736): 42 parts by mass • Polyethylene glycol dimethacrylate (average molecular weight: 536): 12 parts by mass • Trimethylolpropane trimethacrylate: 38 parts by mass γ-methacryloyloxypropyl trimethoxysilane: 2 parts by mass Glycidyl methacrylate: 1 part by mass
(§9) Note that the photochromic compound was added to the curable composition so that the amount of the photochromic compound was 0.25 mmol based on 100 g of the total amount of the radical-polymerizable monomers.
(§10) Phenylbis(2,4,6-trimethylbenzoyl)phosphine oxide (photoinitiator: Omnirad 819): 0.3 parts by mass Ethylene bis(oxyethylene) bis[3-(5-tert-butyl-4-hydroxy-m-tolyl)propionate] (stabilizer, Irganox 245): 1 part by mass Bis(1,2,2,6,6-pentamethyl-4-piperidyl) sebacate: 3 parts by mass Leveling agent (L7001) manufactured by Dow Corning Toray Co.,Ltd.: 0.1 part by mass
(§11) First, a thiourethane-based plastic lens having a central thickness of 2 mm and a refractive index of 1.60 was prepared as the optical substrate. Note that this thiourethane-based plastic lens was pre-treated by alkaline etching with a 10% sodium hydroxide aqueous solution at 50°C for 5 minutes, followed by sufficient washing with distilled water.
(§12) A surface of the above-described plastic lens was coated with a moisture-curable primer (product name: TR-SC-P, manufactured by Tokuyama Corporation) at a rotation frequency of 70 rpm for 15 seconds, followed by 1000 rpm for 10 seconds, using a spin coater (1H-DX2, manufactured by MIKASA CO., LTD), Subsequently, about 2 g of the photochromic curable composition obtained above was spin-coated at a rotation frequency of 60 rpm for 40 seconds, followed by 600 rpm for 10 to 20 seconds, to form a photochromic coating layer with a film thickness of 40 µm.
(§13) The lens with the surface coated with the photochromic curable composition (photochromic coating layer) was irradiated with light using a metal halide lamp with an output power of 200 mW/cm^2 in a nitrogen gas atmosphere for 90 seconds to cure the coating film. Subsequently, the lens was further heated at 110°C for 1 hour to prepare a photochromic laminate having a photochromic layer.
as §1, with “The results of Examples 26, 50, and Comparative Examples 1 to 8 are summarized in Table 1, and the results of Examples 27 to 49 are summarized in Tables 2 and 3.” left out

[4] = Photochromic properties of photochromic laminate (plastic lens) prepared by coating method; conditions: 40 µm photochromic layer on thiourethane lens, 0.25 mmol compound per 100 g monomers, after color development
Excerpt: as §7, §8, §9, §10, §11, §12, §13
In the same manner as in Example 26, photochromic laminates were prepared using the photochromic compounds obtained in Examples 2 to 25.
as §1, with “The higher the residual rate, the higher the color developing durability. The results of Examples 26, 50, and Comparative Examples 1 to 8 are summarized in Table 1, and the results of Examples 27 to 49 are summarized in Tables 2 and 3.” left out

- Residual rate [1]: 72%
- A23 ([2]; 1 mm cured product, 23°C color optical density ε(300)-ε(0)): 1.41 -
- Maximum absorption wavelength ([2]; 1 mm thiourethane cured product, after color development): 526 nm
- Residual rate [3]: 67%
- Maximum absorption wavelength [4]: 522 nm
Compound: CCC1(CC)CCC2(CC1)c1ccccc1-c1c2c2c(c3cc(OC)c(N(c4ccccc4)c4ccccc4)cc13)OC(c1ccc(C)cc1)(c1ccc(N(C)c3ccc(C)cc3)cc1)C=C2 (centres unmarked) [Example 2]
